In paper PMC7728077, “Double-Headed Cationic Lipopeptides: An Emerging Class of Antimicrobials” (International Journal of Molecular Sciences, 2020):
Peptide text beside a SMILES is read from it. * marks the point of attachment. Palmitoyl = CCCCCCCCCCCCCCCC(=O)*

Key:
[1] = NMR DOSY, 700 MHz
Protocol: NMR spectra were recorded on a Bruker AVANCE III 700 MHz spectrometer. The size of lipopeptide assemblies was determined by an NMR method measuring the self-diffusion coefficient (DOSY experiments). The lipopeptide self-diffusion coefficient, D, was measured by attenuation of the spin-echo signal intensity (I) as a function of gradient amplitude (g), expressed by the Stejskal–Tanner formula, I = I0exp[−Dg^2γ^2 δ^2(∆ − δ/3)] [39], where I0 is the echo intensity in the absence of the field gradient pulse, γ = 2.675 × 10^8 rad T^−1 s^−1 is the gyromagnetic ratio of the ^1H nucleus, δ is the duration of the field gradient pulse, and ∆ is the time period between two field gradient pulses. […] The spectra were processed and analyzed using Topspin 3.2 (Bruker, Billerica, MA, USA).

S. epidermidis = experiment: LIVE/DEAD SYTO9/PI bacterial viability staining, fluorescence microscopy; format: cell-based, Staphylococcus epidermidis; conditions: 8, 16 and 32 µg/mL (1×, 2×, 4× MIC), regardless of concentration; at least two independent replicates
Protocol: (§1) Bacteria were inoculated in the Luria–Bertani medium and cultured with shaking at 37 °C up to the early exponential phase (A600 = 0.1). Then, 1.5 mL of the cultures were transferred to 5 mL Eppendorf tubes and treated with suitable peptides added at concentrations of 1×, 2×, or 4× MIC. For the negative control, bacteria were treated with a pure vehicle (water). Next, the cells were cultured for 1 or 2 h, as indicated. To obtain a positive control, at the end of the incubation, one portion of bacteria was collected and suspended in 200 µL of 70% ethanol for 5 min. After incubation, bacteria were collected by centrifugation (10 min, 3000× g) and washed twice with 0.85% NaCl. To determine membrane integrity, bacteria were stained with a LIVE/DEAD™ BacLight™ Bacterial Viability Kit (Thermo Fisher Scientific, Waltham, MA, USA) containing two dyes, i.e., a bacterial membrane permeable SYTO9 (green fluorescence) and an impermeable propidium iodide (red fluorescence) that stains only bacteria with damaged membrane. The staining was performed according to the manufacturer instructions. Then, bacteria were collected by centrifugation and washed twice with 0.85% NaCl. Bacteria pellets were suspended in 10 µL of 0.85% NaCl. Next, 3 µL of each suspension were spotted on agarose pads, covered with coverslips and immediately imaged using fluorescence microscope (Leica DMI4000B) with 100× objective. […]

E. coli = experiment: as above; format: cell-based, Escherichia coli; conditions: 4, 8 and 16 µg/mL (1×, 2×, 4× MIC); at least two independent replicates
Protocol: as §1

SMILES: CCCCCCCCCCCCCCCC(=O)NCCC[C@H](NC(=O)[C@@H](N)CCCCN)C(=O)N[C@@H](CCCCN)C(N)=O [K(OC16)K-NH2]
- first breakpoint of self-diffusion coefficient vs. concentration (premicellar state) [1]: around 6 mM
- second breakpoint of self-diffusion coefficient vs. concentration (micellar state) [1]: around 9 mM

SMILES: CCCCCCCCCCCCCCCC(=O)NCCCC[C@H](NC(=O)[C@H](CCCCN)NC(=O)[C@@H](N)CCCCN)C(=O)N[C@@H](CCCCN)C(=O)N[C@@H](CCCCN)C(N)=O [KK(KC16)KK-NH2] (H-KKK(Palmitoyl)KK-NH2)
- membrane integrity of S. epidermidis cells (SYTO9/PI staining) (S. epidermidis): stained red
- membrane integrity of E. coli cells (SYTO9/PI staining) (E. coli): smaller number of red-stained cells than in the case of S. epidermidis
